Source: ChEMBL document CHEMBL5137083 (J Med Chem, 2022)

Experiments:
Parameters in all cases: species or system Cell membrane
[1] = target: T1, Melatonin receptor type 1A (Homo sapiens, UniProt P48039); assay: Displacement of 2-[125I]iodomelatonin from human melatonin MT1 receptor stably expressing in human HEK293 cell membranes under dark condition by radioligand based competition binding assay
[2] = target: T1, Melatonin receptor type 1A; assay: Displacement of 2-[125I]iodomelatonin from human melatonin MT1 receptor stably expressing in human HEK293 cell membranes in presence of light-activated compounds by radioligand based competition binding assay
[3] = target: T2, Melatonin receptor type 1B (Homo sapiens, UniProt P49286); assay: Displacement of 2-[125I]iodomelatonin from human melatonin MT2 receptor stably expressing in human HEK293 cell membranes under dark condition by radioligand based competition binding assay
T2 sequence (P49286 whole entry): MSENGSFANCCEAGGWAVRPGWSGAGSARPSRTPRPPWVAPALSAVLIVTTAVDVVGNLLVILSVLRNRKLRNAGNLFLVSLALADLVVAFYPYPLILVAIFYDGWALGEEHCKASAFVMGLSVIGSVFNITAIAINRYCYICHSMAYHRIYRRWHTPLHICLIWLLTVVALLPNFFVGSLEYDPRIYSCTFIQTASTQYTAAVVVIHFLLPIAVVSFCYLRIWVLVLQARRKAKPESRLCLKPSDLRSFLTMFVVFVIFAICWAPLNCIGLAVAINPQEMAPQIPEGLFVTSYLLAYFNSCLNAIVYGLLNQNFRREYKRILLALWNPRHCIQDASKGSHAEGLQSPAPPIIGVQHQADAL

[4] = target: T2, Melatonin receptor type 1B; assay: Displacement of 2-[125I]iodomelatonin from human melatonin MT2 receptor stably expressing in human HEK293 cell membranes in presence of light-activated compounds by radioligand based competition binding assay

T1 sequence (P48039 whole entry): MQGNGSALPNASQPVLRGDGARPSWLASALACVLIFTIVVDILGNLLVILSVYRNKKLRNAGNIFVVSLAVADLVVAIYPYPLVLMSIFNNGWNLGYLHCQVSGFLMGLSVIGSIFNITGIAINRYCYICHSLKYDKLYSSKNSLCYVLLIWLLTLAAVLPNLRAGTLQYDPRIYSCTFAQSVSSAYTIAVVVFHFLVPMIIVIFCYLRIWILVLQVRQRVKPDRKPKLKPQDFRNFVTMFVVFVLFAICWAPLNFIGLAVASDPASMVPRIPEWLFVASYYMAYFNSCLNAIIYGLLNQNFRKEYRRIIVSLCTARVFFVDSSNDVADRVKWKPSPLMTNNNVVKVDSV

Ki [1]: 51.3 nM | Ki [2]: 7.76 nM | Ki [3]: 39.8 nM | Ki [4]: 6.92 nM
Structure (SMILES): COc1ccc2c(c1)c(CCNC(C)=O)cn2C(=O)OCc1cc(OC)c(OC)cc1[N+](=O)[O-]
